From ChEMBL document CHEMBL1134918, “General solid-phase method to prepare novel cyclic ketone inhibitors of the cysteine protease cruzain” (Bioorg Med Chem Lett, 2002)
pKi: −log10 of the molar value.

Columns and labels:
[1] = target: Procathepsin L (Homo sapiens, UniProt P07711); assay: Affinity for human Cathepsin L
[2] = target: Cathepsin B (Homo sapiens, UniProt P07858); assay: Affinity for human Cathepsin B
[3] = target: Cruzipain (Trypanosoma cruzi, UniProt P25779); assay: Affinity for cysteine protease (Cruzipain) of Chagas' disease
Sequence of Cruzipain (P25779 whole entry): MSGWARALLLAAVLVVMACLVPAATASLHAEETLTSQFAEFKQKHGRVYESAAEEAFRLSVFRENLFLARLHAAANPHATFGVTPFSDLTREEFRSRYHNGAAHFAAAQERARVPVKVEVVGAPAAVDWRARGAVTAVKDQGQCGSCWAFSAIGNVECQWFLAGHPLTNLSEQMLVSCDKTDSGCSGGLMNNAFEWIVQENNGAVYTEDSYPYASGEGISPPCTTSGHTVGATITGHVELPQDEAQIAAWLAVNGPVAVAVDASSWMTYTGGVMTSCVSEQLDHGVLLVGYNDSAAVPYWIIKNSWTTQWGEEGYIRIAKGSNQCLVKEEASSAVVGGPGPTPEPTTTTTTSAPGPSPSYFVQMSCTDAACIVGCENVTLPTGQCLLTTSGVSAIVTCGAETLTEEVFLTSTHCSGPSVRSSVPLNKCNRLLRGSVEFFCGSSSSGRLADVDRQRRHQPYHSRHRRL

Sequence of Procathepsin L (P07711 whole entry): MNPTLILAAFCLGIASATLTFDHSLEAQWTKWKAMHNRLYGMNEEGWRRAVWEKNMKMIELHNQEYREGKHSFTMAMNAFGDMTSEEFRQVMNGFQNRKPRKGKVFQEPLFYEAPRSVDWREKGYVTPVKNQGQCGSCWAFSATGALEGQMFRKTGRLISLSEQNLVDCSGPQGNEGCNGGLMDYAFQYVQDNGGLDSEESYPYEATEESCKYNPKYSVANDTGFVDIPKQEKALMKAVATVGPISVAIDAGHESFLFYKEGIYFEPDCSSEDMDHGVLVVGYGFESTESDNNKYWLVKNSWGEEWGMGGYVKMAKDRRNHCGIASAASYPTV

Row | SMILES | pKi [1] | pKi [2] | pKi [3]
1 | CC(C)C[C@H](NC(=O)OCc1ccccc1)C(=O)NC1CN(C(=O)[C@H](CC(C)C)NC(=O)OCc2ccccc2)CC1=O (stereo partly specified) |  | < 6.00 | 
2 | CC(C)C[C@@H](C(=O)NCC(=O)CNS(=O)(=O)c1ccc(Oc2ccccc2)cc1)c1cccc(-c2ccccc2)c1 |  | < 5.00 | 
3 | O=C(N[C@@H](Cc1ccccc1)C(=O)NC1CC(=O)N(CCc2ccccc2)CC1=O)OCc1ccccc1 (stereo in doubt) |  |  | 7.27
4 | O=C(N[C@@H](Cc1ccccc1)C(=O)NC1CC(=O)N(CCCc2ccccc2)CC1=O)OCc1ccccc1 (stereo in doubt) |  |  | 7.79
5 | O=C(N[C@@H](Cc1ccccc1)C(=O)NC1CC(=O)N(Cc2ccccc2)CC1=O)OCc1ccccc1 (stereo in doubt) |  |  | 6.69
6 | O=C(N[C@@H](Cc1ccccc1)C(=O)NC1CC(=O)N(CCCc2ccccc2)CC1=O)OCc1ccccc1 (stereo in doubt; 4e) | 7.72 | 6.16 | 7.80
7 | O=C(N[C@@H](Cc1ccccc1)C(=O)NC1CC(=O)N(CCc2ccccc2)CC1=O)OCc1ccccc1 (stereo in doubt; 4f) | 7.03 | 5.21 | 7.28
8 | O=C(N[C@@H](Cc1ccccc1)C(=O)NC1CC(=O)N(Cc2ccccc2)CC1=O)OCc1ccccc1 (stereo in doubt; 4g) | 6.42 | 4.88 | 6.69

The remaining lines, values ahead:

Row | pKi [1] | pKi [2] | pKi [3] | SMILES
9 | 6.22 | 4.89 | 6.42 | CC(C)N1CC(=O)C(NC(=O)[C@H](Cc2ccccc2)NC(=O)OCc2ccccc2)CC1=O (stereo partly specified)
10 | 6.06 | < 5.00 | 6.01 | COCCN1CC(=O)C(NC(=O)[C@H](Cc2ccccc2)NC(=O)OCc2ccccc2)CC1=O (stereo partly specified)
11 | 6.63 | 4.98 | 6.44 | CCCN1CC(=O)C(NC(=O)[C@H](Cc2ccccc2)NC(=O)OCc2ccccc2)CC1=O (stereo partly specified)
12 | 6.52 | 5.34 | 6.56 | CC(C)CN1CC(=O)C(NC(=O)[C@H](Cc2ccccc2)NC(=O)OCc2ccccc2)CC1=O (stereo partly specified)
